Calls of active or inactive are those of the source. The rule behind the calls is not given here.
Key:
BMDM [1] = assay: Cytotoxicity against C57BL/6J mouse Bone marrow macrophage cells assessed as reduction in cell viability at < 10 uM after 48 hrs by CCK-8 assay; assay type: cell-based
BMDM [2] = assay: Inhibition of RANKL/M-CSF-induced osteoclastogenesis in C57BL/6J mouse Bone marrow macrophage cells assessed as decrease in number of osteoclasts at 0.1 to 1 uM compound for every 2 days and measured after 7 days by TRAP staining based light microscopic method; assay type: functional, cell-based
BMDM [3] = assay: Inhibition of RANKL/M-CSF-induced osteoclastogenesis in C57BL/6J mouse Bone marrow macrophage cells assessed as decrease in area of osteoclasts at 0.1 to 1 uM compound for every 2 days and measured after 7 days by TRAP staining based light microscopic method; assay type: functional, cell-based
BMDM [4] = assay: Effect on RANKL/M-CSF-induced osteoclastogenesis in C57BL/6J mouse Bone marrow macrophage cells assessed as increase in number of osteoclasts at 0.1 to 1 uM compound for every 2 days and measured after 7 days by TRAP staining based light microscopic method; assay type: functional, cell-based
BMDM [5] = assay: Effect on RANKL/M-CSF-induced osteoclastogenesis in C57BL/6J mouse Bone marrow macrophage cells assessed as increase in area of osteoclasts at 0.1 uM compound for every 2 days and measured after 7 days by TRAP staining based light microscopic method; assay type: functional, cell-based
BMDM [6] = assay: Effect on RANKL/M-CSF-induced osteoclastogenesis in C57BL/6J mouse Bone marrow macrophage cells assessed as increase in number of osteoclasts at 0.1 uM compound for every 2 days and measured after 7 days by TRAP staining based light microscopic method; assay type: functional, cell-based
BMDM [7] = assay: Effect on RANKL/M-CSF-induced osteoclastogenesis in C57BL/6J mouse Bone marrow macrophage cells assessed as increase in number of osteoclasts at 1 uM compound for every 2 days and measured after 7 days by TRAP staining based light microscopic method; assay type: functional, cell-based

SMILES	Activity (BMDM [1])	also measured
CO[C@@H]1C(=O)CC[C@]2(O)C[S+]([O-])[C@@H](CC=C(C)C)[C@](C)(O)[C@@]12O (some centres undefined)	Non-Toxic	–
CO[C@@H]1C(=O)CC[C@](O)(CCl)[C@@]1(O)[C@@]1(C)O[C@@H]1CC=C(C)C	Non-Toxic	inhibition (BMDM [2]): Active; inhibition (BMDM [3]): Active
CO[C@@H]1C(=O)CC[C@]2(CO2)[C@@]1(O)[C@@]1(C)O[C@@H]1CC=C(C)C [OVALICIN]	Non-Toxic	–
C=C1CC[C@@]2(O)C[C@@H]1[C@@](C)(O)C(=O)[C@H]2C=C(C)C	Non-Toxic	Activity (BMDM [4]): Active; Activity (BMDM [5]): Active
CO[C@@H]1[C@H](O)CC[C@]2(O)C[S+]([O-])[C@@H](CC=C(C)C)[C@](C)(O)[C@@]12O (some centres undefined)	Non-Toxic	–
C=C1CC[C@@]2(O)C[C@@H]1[C@](C)(O)C(=O)[C@H]2C=C(C)C	Non-Toxic	–
CC[C@@H]1O[C@]2(C[C@H](O)C1(C)C)OC(=O)C[C@@H]2NC(C)=O	Non-Toxic	–
CO[C@@H]1C(=O)CC[C@]2(O)CO[C@@H](CC=C(C)C)[C@](C)(O)[C@@]12O	Non-Toxic	Activity (BMDM [4]): Active; Activity (BMDM [5]): Active
CC/C=C\[C@H](O)[C@H](O)C1=C(C)C(=O)[C@]2(O1)C(=O)N[C@@](OC)(C(=O)c1ccccc1)[C@@H]2O [PSEUROTIN A]	Non-Toxic	Activity (BMDM [6]): Active
C=C1CCC2(O)CC1C2(C)[C@H](O)CC=C(C)C (some centres undefined)	Non-Toxic	–
CC(C)=CC[C@H]1O[C@]1(C)[C@]1(CO)OC(=O)CC[C@]1(O)CCl	Non-Toxic	Activity (BMDM [7]): Active

Source: ChEMBL document CHEMBL4334440, “Osteoclastogenesis Regulation Metabolites from the Coral-Associated Fungus Pseudallescheria boydii TW-1024-3” (J Nat Prod, 2019)
